Laboratory results: US20250382344A1, “Soluble GLP1/GIP/NPY2 Receptor Triple Agonists” (Boehringer Ingelheim International GmH, priority 2024, published 2025)
Where two headings read alike, the source gives them in different places.

Experiments:
hNPY2R = biological target: T1, hNPY2R (Homo sapiens, UniProt P49146); assay: hNPY2R CreLuc assay in 0.5% and 100% plasma (HEK-293 CRE-luciferase reporter cells); format: cell-based; settings: HEK-293 reporter cells
T1 construct: expressed in transfected cells; host or cells: HEK-293 CRE-luciferase reporter cells
T1 sequence (P49146 1-381): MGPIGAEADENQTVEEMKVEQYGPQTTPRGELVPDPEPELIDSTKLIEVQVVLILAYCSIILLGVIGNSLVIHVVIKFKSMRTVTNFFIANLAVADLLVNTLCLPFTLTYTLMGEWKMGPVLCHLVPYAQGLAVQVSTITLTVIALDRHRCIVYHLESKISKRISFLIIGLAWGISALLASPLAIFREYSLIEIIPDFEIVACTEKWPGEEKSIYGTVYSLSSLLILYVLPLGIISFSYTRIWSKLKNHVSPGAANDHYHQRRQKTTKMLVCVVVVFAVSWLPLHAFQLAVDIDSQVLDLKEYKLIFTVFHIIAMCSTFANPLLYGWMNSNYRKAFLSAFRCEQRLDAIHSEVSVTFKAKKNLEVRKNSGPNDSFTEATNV

[1] = Solubility in 0.1 M phosphate buffer at pH 7; format: physicochemical; settings: 0.1 M phosphate buffer at pH 7, 10 mg/mL final peptide concentration, shaking 2 hours at room temperature, peptides as TFA-salts; measured sample pH 6.5-7.0
hGIPR = biological target: T2, hGIPR (Homo sapiens, UniProt P48546); assay: hGIPR CreLuc assay in 0.5% and 100% plasma (CHO CRE-luciferase reporter cells); format: cell-based; settings: 0.5% human plasma, read-out: hGIPR 0.5% hP
T2 construct: expressed in transfected cells; host or cells: CHO CRE-luciferase reporter cells
T2 sequence (P48546 22-466): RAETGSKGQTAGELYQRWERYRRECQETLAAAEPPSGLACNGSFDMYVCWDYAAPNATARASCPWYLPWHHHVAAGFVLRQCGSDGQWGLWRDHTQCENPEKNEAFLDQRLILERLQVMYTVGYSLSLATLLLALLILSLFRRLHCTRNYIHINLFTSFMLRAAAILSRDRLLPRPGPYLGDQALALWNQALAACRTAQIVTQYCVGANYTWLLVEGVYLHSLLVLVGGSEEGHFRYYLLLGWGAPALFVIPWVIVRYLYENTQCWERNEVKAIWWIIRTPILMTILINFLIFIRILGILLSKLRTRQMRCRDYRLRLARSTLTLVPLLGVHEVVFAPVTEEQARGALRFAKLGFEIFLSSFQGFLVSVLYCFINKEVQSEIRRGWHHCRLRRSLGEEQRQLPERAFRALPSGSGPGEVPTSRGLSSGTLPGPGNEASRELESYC

| EC50 (hNPY2R; 100% human plasma, read-out: hNPY2R 100% hP) | solubility at 2 h [1] | EC50 (hGIPR) | EC50 (hNPY2R; 0.5% human plasma, read-out: hNPY2R 0.5% hP) | SMILES |
| --- | --- | --- | --- | --- |
| 136 nM | 3100 µg/mL | 1.7 nM |  | CC[C@H](C)[C@H](NC(=O)[C@H](CC(C)C)NC(=O)[C@H](Cc1c[nH]cn1)NC(=O)[C@H](CCCNC(=N)N)NC(=O)[C@@H](NC(=O)[C@H](Cc1ccccc1)NC(=O)[C@H](C)NC(=O)C(C)(C)NC(=O)[C@H](CCC(N)=O)NC(=O)[C@H](C)NC(=O)[C@H](CCC(N)=O)NC(=O)[C@H](CCCCN)NC(=O)[C@H](CCC(=O)O)NC(=O)[C@H](CC(C)C)NC(=O)C(C)(C)NC(=O)[C@@H](NC(=O)[C@H](CO)NC(=O)[C@H](Cc1ccc(O)cc1)NC(=O)[C@H](CC(=O)O)NC(=O)[C@H](CO)NC(=O)[C@@H](NC(=O)[C@H](Cc1ccccc1)NC(=O)[C@@H](NC(=O)CNC(=O)[C@H](CCC(=O)O)NC(=O)C(C)(C)NC(=O)[C@@H](N)Cc1ccc(O)cc1)[C@@H](C)O)[C@@H](C)O)[C@@H](C)CC)C(C)C)C(=O)N[C@@H](CC(N)=O)C(=O)N[C@@H](CCCCNC(=O)[C@@H](N)CCCCNC(=O)CC[C@H](NC(=O)CC[C@H](NC(=O)CC[C@H](NC(=O)CC[C@H](NC(=O)CC[C@H](NC(=O)CC[C@H](NC(=O)CCCCCCCCCCCCCCCCC(=O)O)C(=O)O)C(=O)O)C(=O)O)C(=O)O)C(=O)O)C(=O)O)C(=O)N[C@@H](Cc1c[nH]c2ccccc12)C(=O)N[C@H](C(=O)N[C@@H](CCCNC(=N)N)C(=O)N[C@@H](CCC(N)=O)C(=O)N[C@@H](CCCNC(=N)N)C(=O)N[C@@H](Cc1ccc(O)cc1)C(N)=O)[C@@H](C)O [Compound 172, Y-Aib-E-G-T-F-T-S-D-Y-S-I-Aib-L-E-K-Q-A-Q-Aib-A-F-V-R-H-L-I-N-K(1,3)-W-T-R-Q-R-Y-NH2.C18DA-gGlu-gGlu-gGlu-gGlu-gGlu-gGlu-eLys(1,2)] |
|  | 5300 µg/mL | 0.6 nM | 32.8 nM | CC[C@H](C)[C@H](NC(=O)[C@H](CC(C)C)NC(=O)[C@H](Cc1c[nH]cn1)NC(=O)[C@H](CCCNC(=N)N)NC(=O)[C@@H](NC(=O)[C@H](Cc1ccccc1)NC(=O)[C@H](C)NC(=O)C(C)(C)NC(=O)[C@H](CCC(N)=O)NC(=O)[C@H](C)NC(=O)[C@H](CCC(N)=O)NC(=O)[C@H](CCCCN)NC(=O)[C@H](CCC(=O)O)NC(=O)[C@H](CC(C)C)NC(=O)C(C)(C)NC(=O)[C@@H](NC(=O)[C@H](CO)NC(=O)[C@H](Cc1ccc(O)cc1)NC(=O)[C@H](CC(=O)O)NC(=O)[C@H](CO)NC(=O)[C@@H](NC(=O)[C@H](Cc1ccccc1)NC(=O)[C@@H](NC(=O)CNC(=O)[C@H](CCC(=O)O)NC(=O)C(C)(C)NC(=O)[C@@H](N)Cc1ccc(O)cc1)[C@@H](C)O)[C@@H](C)O)[C@@H](C)CC)C(C)C)C(=O)N[C@@H](CC(N)=O)C(=O)N[C@@H](CCCCNC(=O)CC[C@H](NC(=O)CC[C@H](NC(=O)CC[C@H](NC(=O)CC[C@H](NC(=O)CC[C@H](NC(=O)CCCCCCCCCCCCCCCCCCC(=O)O)C(=O)O)C(=O)O)C(=O)O)C(=O)O)C(=O)O)C(=O)NC(C)(C)C(=O)N[C@H](C(=O)N[C@@H](CCCNC(=N)N)C(=O)N[C@@H](CCC(N)=O)C(=O)N[C@@H](CCCNC(=N)N)C(=O)N[C@@H](Cc1ccc(O)cc1)C(N)=O)[C@@H](C)O [Compound 176, Y-Aib-E-G-T-F-T-S-D-Y-S-I-Aib-L-E-K-Q-A-Q-Aib-A-F-V-R-H-L-I-N-K(1,3)-Aib-T-R-Q-R-Y-NH2.C20DA-gGlu-gGlu-gGlu-gGlu-gGlu(1,2)] |
